Laboratory results from patent EP0481522B1, “Novel mercaptoacetylamide derivatives useful as inhibitors of enkephalinase and ace” (MERRELL PHARMACEUTICALS INC., priority 1990, dated 1992).

Tests used:
ACE = ACE (Homo sapiens, UniProt P12821); experiment: ACE inhibition, spectrophotometric enzyme assay; format: biochemical; details: spectrophotometric substrate of Holmquist et al., buffer system of Ryan
Description: The enzymatic activity of ACE is monitored using the spectrophotometric substrate described by Holmquist et al. [Anal.Biochem. 95, 540-548 (1979)] and the buffer system described by Ryan [Methods of Enzymatic Analysis, 3rd ed., H. U. Bergmeyer, editor; vol. V, Verlag Chemie, Weinheim, 1983, pp. 20-34].

Enkephalinase = target: T1, Enkephalinase (Rattus norvegicus, UniProt P07861); experiment: Enkephalinase inhibition, fluorometric enzyme assay; format: biochemical; details: enzyme partially purified from rat kidney; 12 µM dansyl-D-AlaGly(p-nitro)PheGly, 50mM HEPES buffer (pH 7.4), 25°C
T1 construct: The enzyme is extracted from the microvilli fraction by using Triton X-100; from tissue; host or cells: rat kidney, microvilli fraction
T1 sequence (P07861 1-750): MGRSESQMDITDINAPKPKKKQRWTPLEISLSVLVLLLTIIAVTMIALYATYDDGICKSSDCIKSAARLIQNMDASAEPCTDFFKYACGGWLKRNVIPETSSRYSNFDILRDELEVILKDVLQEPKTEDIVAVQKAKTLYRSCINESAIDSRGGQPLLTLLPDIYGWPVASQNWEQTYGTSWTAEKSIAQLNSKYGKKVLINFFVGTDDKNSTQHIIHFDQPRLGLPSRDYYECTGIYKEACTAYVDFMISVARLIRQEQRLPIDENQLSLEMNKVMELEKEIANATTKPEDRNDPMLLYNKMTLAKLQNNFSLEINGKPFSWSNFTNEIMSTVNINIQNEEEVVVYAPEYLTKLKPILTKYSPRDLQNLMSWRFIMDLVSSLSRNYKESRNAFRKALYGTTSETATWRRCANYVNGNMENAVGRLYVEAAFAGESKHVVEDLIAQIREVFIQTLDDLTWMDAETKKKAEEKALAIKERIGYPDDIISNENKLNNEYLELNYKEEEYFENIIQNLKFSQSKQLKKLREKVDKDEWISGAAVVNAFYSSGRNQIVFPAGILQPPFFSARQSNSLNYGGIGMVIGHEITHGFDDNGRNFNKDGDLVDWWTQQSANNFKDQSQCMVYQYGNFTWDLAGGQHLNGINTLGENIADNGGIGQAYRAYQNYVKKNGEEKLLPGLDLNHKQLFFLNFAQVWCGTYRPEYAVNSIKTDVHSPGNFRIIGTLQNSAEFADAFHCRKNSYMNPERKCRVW
Description: Enkephalinase is partially purified from rat kidney. The enzyme is extracted from the microvilli fraction by using Triton X-100 according to the method of Malfroy and Schwartz [J.Biol.Chem. 259, 14365-14370 (1984)] or by using proteolytic treatment according to the method of Almenoff and Orlowski [Biochem. 22, 590-599 (1983)]. The enzyme is further purified by anion exchange chromatography (Mono QTM column, Pharmacia) using a Pharmacia FPLC system. The enzyme activity may be measured by the fluorometric methods of Florentin et al. [Anal.Biochem. 141, 62-69 (1984)] or of Almenoff and Orlowski [J.Neurochemistry 42, 151-157 (1984)]. […] The substrate (and inhibitor) is added from a concentrated stock soluticn in DMSO (up to 0.1 mL DMSO final volume). The enzyme in a small volume (approximately 0.1 μg of FPLC purified protein) is added to initiate the reaction and the rate of fluorescense increase is recorded continuously using a fluorometer (excitation at 339nm, emission at 562nm).

ACE, sequence (P12821 30-1306, species assumed): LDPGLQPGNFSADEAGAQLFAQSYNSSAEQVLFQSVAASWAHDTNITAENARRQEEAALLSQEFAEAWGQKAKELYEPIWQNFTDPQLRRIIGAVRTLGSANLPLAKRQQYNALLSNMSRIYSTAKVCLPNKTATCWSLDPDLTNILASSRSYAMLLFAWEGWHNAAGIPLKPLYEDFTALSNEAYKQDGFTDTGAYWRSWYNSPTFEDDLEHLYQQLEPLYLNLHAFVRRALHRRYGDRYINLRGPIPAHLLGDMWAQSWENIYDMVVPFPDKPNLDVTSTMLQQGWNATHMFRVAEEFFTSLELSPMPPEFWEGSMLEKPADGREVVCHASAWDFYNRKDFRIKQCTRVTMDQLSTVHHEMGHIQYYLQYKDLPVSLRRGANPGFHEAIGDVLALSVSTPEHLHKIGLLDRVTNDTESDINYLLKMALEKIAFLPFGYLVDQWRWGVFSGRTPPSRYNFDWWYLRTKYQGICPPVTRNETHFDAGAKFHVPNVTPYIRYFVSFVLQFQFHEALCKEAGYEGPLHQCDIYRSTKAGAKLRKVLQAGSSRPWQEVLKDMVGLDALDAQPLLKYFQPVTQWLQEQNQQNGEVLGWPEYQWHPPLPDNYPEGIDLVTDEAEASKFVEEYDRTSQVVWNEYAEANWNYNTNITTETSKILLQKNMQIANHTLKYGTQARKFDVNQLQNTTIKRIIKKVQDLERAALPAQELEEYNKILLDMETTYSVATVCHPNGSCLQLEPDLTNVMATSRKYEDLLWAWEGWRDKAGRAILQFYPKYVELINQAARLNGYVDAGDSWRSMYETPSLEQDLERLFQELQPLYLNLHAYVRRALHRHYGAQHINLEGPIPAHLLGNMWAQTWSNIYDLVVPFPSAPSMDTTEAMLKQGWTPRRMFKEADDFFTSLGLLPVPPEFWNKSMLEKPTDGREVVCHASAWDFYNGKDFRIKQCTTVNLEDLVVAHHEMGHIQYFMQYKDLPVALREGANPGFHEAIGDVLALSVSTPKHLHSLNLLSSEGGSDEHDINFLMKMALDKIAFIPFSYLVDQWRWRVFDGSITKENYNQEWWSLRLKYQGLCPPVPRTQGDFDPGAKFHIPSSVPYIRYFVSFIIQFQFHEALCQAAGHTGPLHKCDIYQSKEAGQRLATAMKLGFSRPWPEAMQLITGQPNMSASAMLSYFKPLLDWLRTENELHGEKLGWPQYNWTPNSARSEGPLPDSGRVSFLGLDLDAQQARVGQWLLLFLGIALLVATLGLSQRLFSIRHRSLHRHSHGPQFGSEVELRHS

O=C(CS)N[C@H]1Cc2ccccc2[C@H]2CCC[C@@H](C(=O)O)N2C1=O (relative stereo) [27,855, [4S-[4α, 7α(R*), 12bβ]]-7-[(1-oxo-2-thio-ethyl)amino]-1,2,3,4,6,7,8,12b-octahydro-6-oxo-pyrido[2,1-a][2]benzazepine-4-carboxylic acid]
Ki (ACE): 5 nM
Ki (Enkephalinase): 8 nM

O=C(N[C@H]1Cc2ccccc2[C@H]2CCC[C@@H](C(=O)O)N2C1=O)[C@@H](S)Cc1ccccc1 (relative stereo) [100,173, [4S-[4α, 7α(R*), 12bβ]]-7-[(1-oxo-2(S)-thio-3-phenylpropyl)amino]-1,2,3,4,6,7,8,12b-octahydro-6-oxo-pyrido[2,1-a][2]benzazepine-4-carboxylic acid]
Ki (ACE): 0.74 nM
Ki (Enkephalinase): < 1 nM

O=C(N[C@H]1Cc2ccccc2[C@H]2CC[C@@H](C(=O)O)N2C1=O)[C@H](S)Cc1ccccc1 (relative stereo) [100,919, [6α(R*), 11bβ]-6-[(S)-(1-oxo-2(R)-thio-3-phenylpropyl)amino]-1,2,3,5,6,7,11b-heptahydro-5-oxo-pyrrolo[2,1-a][2]benzazepine-3(S)-carboxylic acid]
Ki (ACE): 1 nM
Ki (Enkephalinase): < 1 nM

O=C(N[C@H]1Cc2ccccc2[C@H]2COC[C@@H](C(=O)O)N2C1=O)[C@@H](S)Cc1ccccc1 (relative stereo) [101,519, [4S-[4α, 7α(R*), 12bβ]]-7-[(1-Oxo-2(S)-thio-3-phenylpropyl)amino]-1,2,3,4,6,7,8,12b-hexahydro-6-oxo-1 H-[1,4]-oxazino[3,4-a][2]benzazepine-4-carboxylic acid]
Ki (ACE): < 7 nM
Ki (Enkephalinase): < 1 nM

O=C(N[C@H]1Cc2ccccc2[C@H]2CCC[C@@H](C(=O)O)N2C1=O)[C@H](S)Cc1ccccc1 (relative stereo) [101,628, [4S-[4α, 7α(R*), 12bβ]]-7-[(1-Oxo-2(R)-thio-3-phenylpropyl)amino]-1,2,3,4,6,7,8,12b-octahydro-6-oxo-pyrido[2,1-a][2]benzazepine-4-carboxylic acid]
Ki (ACE): 6.7 nM
Ki (Enkephalinase): < 1 nM

O=C(N[C@H]1Cc2ccccc2[C@H]2CCC[C@@H](C(=O)O)N2C1=O)C(S)c1ccccc1 (relative stereo) [101,804, [4S-[4α, 7α(R*), 12bβ]]-7-[(1-Oxo-2-thio-2-phenylethyl)amino]-1,2,3,4,6,7,8,12b-octahydro-6-oxo-pyrido[2,1-a][2]benzazepine-4-carboxylic acid]
Ki (ACE): 2.1 nM
Ki (Enkephalinase): 1 nM

CC(=O)S[C@@H](Cc1ccccc1)C(=O)N[C@H]1Cc2ccccc2[C@H]2COC[C@@H](C(=O)O)N2C1=O (relative stereo) [102,179, [4S-[4α, 7α(R*), 12bβ]]-7-[(1-Oxo-2(S)-acetylthio-3-phenylpropyl)amino]-1,2,3,4,6,7,8,12b-hexahydro-6-oxo-1H-[1,4]oxazino[3,4-a][2]benzazepine-4-carboxylic acid]
Ki (ACE): < 7 nM
Ki (Enkephalinase): < 1 nM
